Where two headings read alike, the source gives them in different places.
Tests used:
Assay in all cases: fluorescence-based deacetylase assay with Z-Lys(acetyl)-AMC (ZMAL) substrate
Type in all cases: biochemical
Sirt3 = target: T1, Sirt3 (Homo sapiens, UniProt Q9NTG7); conditions: read-out: Sirt3 inhibition IC50
T1 construct: Sirt3_118−395; made in house
T1 sequence (Q9NTG7 118-395): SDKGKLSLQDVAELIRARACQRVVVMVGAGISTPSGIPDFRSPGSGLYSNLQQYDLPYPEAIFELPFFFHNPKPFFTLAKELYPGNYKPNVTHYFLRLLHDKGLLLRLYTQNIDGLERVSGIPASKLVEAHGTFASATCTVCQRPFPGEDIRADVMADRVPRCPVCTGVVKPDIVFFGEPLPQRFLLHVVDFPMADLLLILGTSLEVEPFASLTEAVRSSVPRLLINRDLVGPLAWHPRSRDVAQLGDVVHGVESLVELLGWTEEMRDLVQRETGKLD
Protocol: (§1) The influence on deacetylase activity of three human sirtuin isoforms (Sirt1–3) was determined in a fluorescence-based assay, using Z-Lys(acetyl)-AMC (ZMAL) as a substrate. Compared to the lead structure 2a, all compounds except 2e–h show increased inhibitory activity against Sirt2 (Table 1). […] Moreover, a slight increase in selectivity for Sirt2 and Sirt3 over Sirt1 could be observed for 2c, 4a and 4b. […] Though not photoswitchable, compounds 4a and 4b were synthesized to test the influence of a rigid conformation around the C=C double bond on sirtuin inhibition. […] A recently developed fluorescence polarization (FP)-based assay enables mapping of ligand binding to this specific binding site. For 2a an interaction with the selectivity pocket was already implied in the same work. Additionally performed docking studies proposed a binding mode in which 2a mimics the nicotinamide residue of NAD^+, whereas aromatic amino acid residues of the selectivity pocket stabilize the dimethylphenol ring. As photoisomerization in stilbenes and azo dyes is accompanied by a perpendicular twist of the phenyl ring towards the former molecular plane, we assumed that this conformational change should provoke a differential binding situation at least for the dimethylphenol residue in 2a. Unfortunately, binding of 2b and c could not be localised in the vicinity of the selectivity pocket of Sirt2, so that the binding pose remains unclear.
(§2) The photoswitchable diazeno compound 11 was subjected to biological evaluation to test the effect of photoisomerization on the inhibitory activity. The enzyme assay mixture containing 11 was exposed to 5 minutes of 365 nm radiation and compared with the results of a non-irradiated measurement. […] Unfortunately, 365 nm radiation turned out to have only minor effects on the IC50 values of 11 (Table 3).
(§3) Cloning, expression and purification of recombinant proteins: Expression and purification of Sirt1_133-747, Sirt2_56−356, and Sirt3_118−395 was carried out as described previously. Identity and purity were verified by SDS-PAGE [65]. Protein concentration was determined by the Bradford assay.
(§4) Bioassay: The inhibitory effect of compounds 2a–h, 4a/b, 8a and 11 on Sirt1–3 was detected via a previously reported fluorescence based assay. The synthetic substrate Z-Lys(acetyl)-AMC (ZMAL) is deacetylated by sirtuins, followed by tryptic digestion and thereby release of […], leading to a fluorescent readout. Inhibition was determined by comparing percentage substrate conversion to a DMSO control after subtraction of the blank fluorescence signal. All compounds were tested at 100 µM, 50 µM and 10 µM, respectively. […] IC50 values were calculated with OriginPro 9.0 G using a non-linear regression to fit the dose response curve. An enzyme-free blank control and a 100% conversion control using AMC instead of ZMAL were measured as well. Inhibition measurements were performed in biological duplicates for all compounds.

Sirt1 = target: T2, Sirt1 (Homo sapiens, UniProt Q96EB6); conditions: @ 100 µM
T2 construct: Expression and purification of Sirt1_133-747; made in house
T2 sequence (Q96EB6 133-747): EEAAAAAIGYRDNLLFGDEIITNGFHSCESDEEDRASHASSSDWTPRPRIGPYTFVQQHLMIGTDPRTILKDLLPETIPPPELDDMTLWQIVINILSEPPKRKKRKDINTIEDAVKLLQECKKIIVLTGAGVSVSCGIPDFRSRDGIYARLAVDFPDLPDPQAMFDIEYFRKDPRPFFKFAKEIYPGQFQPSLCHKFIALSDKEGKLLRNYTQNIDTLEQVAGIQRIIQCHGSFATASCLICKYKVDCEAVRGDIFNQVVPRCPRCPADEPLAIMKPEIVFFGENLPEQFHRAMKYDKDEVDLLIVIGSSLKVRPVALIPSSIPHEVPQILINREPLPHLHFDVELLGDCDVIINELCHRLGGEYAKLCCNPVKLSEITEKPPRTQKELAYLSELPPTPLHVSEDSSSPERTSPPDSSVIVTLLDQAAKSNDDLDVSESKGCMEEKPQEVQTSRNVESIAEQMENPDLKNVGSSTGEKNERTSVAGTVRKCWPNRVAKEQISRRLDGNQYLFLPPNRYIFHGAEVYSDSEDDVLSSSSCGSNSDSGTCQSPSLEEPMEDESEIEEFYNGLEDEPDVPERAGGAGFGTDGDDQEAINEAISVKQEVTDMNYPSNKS
Protocol: as §1, §2, §3, §4

Sirt2 = target: T3, Sirt2 (Homo sapiens, UniProt Q8IXJ6); conditions: read-out: Sirt2 inhibition IC50
T3 construct: Sirt2_56−356; made in house
T3 sequence (Q8IXJ6 56-356): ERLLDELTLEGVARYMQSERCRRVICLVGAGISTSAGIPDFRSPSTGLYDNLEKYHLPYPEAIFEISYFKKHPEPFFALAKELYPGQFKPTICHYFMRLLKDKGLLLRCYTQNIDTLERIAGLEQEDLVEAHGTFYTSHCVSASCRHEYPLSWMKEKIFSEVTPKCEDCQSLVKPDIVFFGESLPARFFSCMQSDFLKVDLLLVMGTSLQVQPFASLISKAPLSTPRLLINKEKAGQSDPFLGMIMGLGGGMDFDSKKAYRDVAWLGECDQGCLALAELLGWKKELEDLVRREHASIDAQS
Protocol: as §1, §2, §3, §4

[1] = photostationary state (PSS) after 5 minutes of 365 nm irradiation
[2] = thermal equilibrium (∆), non-irradiated

Molecule `NC(=O)c1cncc(N=Nc2ccc(F)cc2)c1` [Compound 11, 5-[(4-Fluorophenyl)diazenyl]nicotinamide] has an IC50 (Sirt3; [1]) of 29.9 ± 2.11 µM, an IC50 (Sirt3; [2]) of 27.5 ± 3.42 µM and an inhibition at 100 µM (Sirt1; [1]) of 19%. For the same molecule, the inhibition at 100 µM (Sirt1; [2]) was 35%, the IC50 (Sirt2; [1]) was 24.1 ± 1.69 µM and the IC50 (Sirt2; [2]) was 18.9 ± 1.38 µM.
